# According to patent US12252524B2, “GIP/GLP1 co-agonist compounds” (Eli Lilly and Company, priority 2018, dated 2025):
# Numbered stars: 1 amine (or outer) side, 2 acyl side, 3 side chain; on linkers, the order of the positions; unused ones are H or OH. Square brackets hold non-standard residues; d marks the D form. Side chains are listed from the residue outwards. Peptide text beside a SMILES is read from it. * marks the point of attachment. C20 diacid = O=C(O)CCCCCCCCCCCCCCCCCCC(=O)*; αMePhe(2-F) = C[C@](N)(Cc1ccccc1F)C(=O)O; γGlu = O=C(O)[C@H](CCC(=O)[*:2])N[*:1]; αMeF = C[C@](N)(Cc1ccccc1)C(=O)O; 3Pal = N[C@@H](Cc1cccnc1)C(=O)O; αMeL = CC(C)C[C@](C)(N)C(=O)O; αMeP = C[C@@]1(C(=O)O)CCCN1; Dap = NC[C@H](N)C(=O)O; AEEA = NCCOCCOCC(=O)O; Aib = CC(C)(N)C(=O)O
# Tests used:
# [1] = target: human GLP-1 receptor (GLP-1R) (Homo sapiens, UniProt P43220); assay: cAMP pharmacological functional assay in presence of casein, hGLP-1R; type: cell-based; conditions: HEK293 cells expressing hGLP-1R, 0.1% Casein, geometric mean; read-out: hGLP1R cAMP Rel EC50 nM (SEM, n)
# [2] = target: T1, gastric inhibitory peptide receptor (GIPR) (Homo sapiens, UniProt P48546); assay: cAMP pharmacological functional assay in presence of casein, hGIPR; type: cell-based; conditions: HEK293 cells expressing hGIPR, 0.1% Casein, geometric mean; read-out: hGIPR cAMP Rel EC50 nM (SEM, n)
# T1 sequence (P48546 22-466): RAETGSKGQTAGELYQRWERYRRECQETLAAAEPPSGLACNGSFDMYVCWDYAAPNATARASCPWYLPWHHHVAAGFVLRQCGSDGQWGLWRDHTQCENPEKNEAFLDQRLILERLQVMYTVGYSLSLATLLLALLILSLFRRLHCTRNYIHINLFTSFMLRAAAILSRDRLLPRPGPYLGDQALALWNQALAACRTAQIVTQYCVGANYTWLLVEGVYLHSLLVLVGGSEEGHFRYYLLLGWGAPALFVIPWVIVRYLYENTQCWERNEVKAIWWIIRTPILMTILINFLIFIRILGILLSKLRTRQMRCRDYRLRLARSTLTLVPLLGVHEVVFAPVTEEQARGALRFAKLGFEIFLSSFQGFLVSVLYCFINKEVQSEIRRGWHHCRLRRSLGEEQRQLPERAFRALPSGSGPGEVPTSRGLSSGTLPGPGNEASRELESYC
# Chain of human GLP-1 receptor (GLP-1R) (P43220 24-463): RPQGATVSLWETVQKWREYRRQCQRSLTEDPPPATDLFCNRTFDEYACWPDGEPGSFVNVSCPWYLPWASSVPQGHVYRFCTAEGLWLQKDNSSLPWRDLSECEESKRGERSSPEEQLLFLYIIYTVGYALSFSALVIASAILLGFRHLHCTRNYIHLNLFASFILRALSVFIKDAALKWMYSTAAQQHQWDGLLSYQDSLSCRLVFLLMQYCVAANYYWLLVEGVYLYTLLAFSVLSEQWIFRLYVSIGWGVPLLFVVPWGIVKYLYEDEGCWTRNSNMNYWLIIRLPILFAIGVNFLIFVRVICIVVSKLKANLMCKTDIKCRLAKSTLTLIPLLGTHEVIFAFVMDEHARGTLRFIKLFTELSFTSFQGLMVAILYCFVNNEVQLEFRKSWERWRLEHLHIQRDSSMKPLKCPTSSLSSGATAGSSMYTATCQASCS
Structure (SMILES),EC50 [1] [nM],EC50 [2] [nM]
CC[C@H](C)[C@H](NC(=O)[C@H](CCCCN)NC(=O)[C@H](CC(=O)O)NC(=O)[C@H](CC(C)C)NC(=O)[C@H](CC(C)C)NC(=O)[C@@H](NC(=O)[C@H](CO)NC(=O)[C@H](Cc1ccc(O)cc1)NC(=O)[C@H](CC(=O)O)NC(=O)[C@H](CO)NC(=O)[C@@H](NC(=O)[C@H](Cc1ccccc1)NC(=O)[C@@H](NC(=O)CNC(=O)[C@H](CCC(=O)O)NC(=O)C(C)(C)NC(=O)[C@@H](N)Cc1ccc(O)cc1)[C@@H](C)O)[C@@H](C)O)[C@@H](C)CC)C(=O)N[C@@H](C)C(=O)N[C@@H](CCC(N)=O)C(=O)NC(C)(C)C(=O)N[C@@H](CCCCNC(=O)COCCOCCNC(=O)COCCOCCNC(=O)CC[C@H](NC(=O)CCCCCCCCCCCCCCCCCCC(=O)O)C(=O)O)C(=O)N[C@@H](Cc1ccccc1)C(=O)N[C@H](C(=O)N[C@@H](CCC(=O)O)C(=O)N[C@@H](Cc1ccc(O)cc1)C(=O)N[C@@H](CC(C)C)C(=O)N[C@H](C(=O)N[C@@H](CCC(=O)O)C(=O)NCC(=O)NCC(N)=O)[C@@H](C)CC)[C@@H](C)CC [Example 72] (H-Y[Aib]EGTFTSDYSILLDKIAQ[Aib]K([AEEA-AEEA-γGlu-C20 diacid])FIEYLIEGG-NH2),0.906,0.252
CC[C@H](C)[C@H](NC(=O)[C@H](CC(C)C)NC(=O)[C@H](Cc1ccc(O)cc1)NC(=O)[C@H](CCC(N)=O)NC(=O)[C@@H](NC(=O)[C@H](Cc1ccccc1)NC(=O)[C@H](CCC(=O)O)NC(=O)C(C)(C)NC(=O)[C@H](CCC(N)=O)NC(=O)[C@H](C)NC(=O)[C@H](CCCCNC(=O)COCCOCCNC(=O)COCCOCCNC(=O)CC[C@H](NC(=O)CCCCCCCCCCCCCCCCCCC(=O)O)C(=O)O)NC(=O)[C@H](CCC(=O)O)NC(=O)[C@H](CC(=O)O)NC(=O)[C@H](CC(C)C)NC(=O)[C@](C)(CC(C)C)NC(=O)[C@@H](NC(=O)[C@H](CO)NC(=O)[C@H](Cc1ccc(O)cc1)NC(=O)[C@H](CC(=O)O)NC(=O)[C@H](CO)NC(=O)[C@@H](NC(=O)[C@](C)(Cc1ccccc1F)NC(=O)[C@@H](NC(=O)CNC(=O)[C@H](CCC(=O)O)NC(=O)C(C)(C)NC(=O)[C@@H](N)Cc1ccc(O)cc1)[C@@H](C)O)[C@@H](C)O)[C@@H](C)CC)[C@@H](C)CC)C(=O)N[C@@H](CCC(=O)O)C(=O)NCC(=O)NCC(=O)N1CCC[C@H]1C(=O)N[C@@H](CO)C(=O)N[C@@H](CO)C(=O)NCC(=O)N[C@@H](C)C(=O)N1CCC[C@H]1C(=O)N1CCC[C@H]1C(=O)N1CCC[C@H]1C(=O)N[C@@H](CO)C(N)=O [Example 146] (H-Y[Aib]EGT[αMePhe(2-F)]TSDYSI[αMeL]LDEK([AEEA-AEEA-γGlu-C20 diacid])AQ[Aib]EFIQYLIEGGPSSGAPPPS-NH2),0.0604,0.0583
CC[C@H](C)[C@H](NC(=O)[C@H](CC(C)C)NC(=O)[C@H](Cc1ccc(O)cc1)NC(=O)[C@H](CCC(=O)O)NC(=O)[C@@H](NC(=O)[C@H](Cc1ccccc1)NC(=O)[C@H](C)NC(=O)[C@H](Cc1c[nH]cn1)NC(=O)[C@H](CCC(N)=O)NC(=O)[C@H](C)NC(=O)[C@H](CCCCNC(=O)COCCOCCNC(=O)COCCOCCNC(=O)CC[C@H](NC(=O)CCCCCCCCCCCCCCCCCCC(=O)O)C(=O)O)NC(=O)[C@H](CCCNC(=N)N)NC(=O)[C@H](CC(=O)O)NC(=O)[C@H](CC(C)C)NC(=O)[C@H](CC(C)C)NC(=O)[C@@H](NC(=O)[C@H](CO)NC(=O)[C@H](Cc1ccc(O)cc1)NC(=O)[C@H](CC(=O)O)NC(=O)[C@H](CO)NC(=O)[C@@H](NC(=O)[C@H](Cc1ccccc1)NC(=O)[C@@H](NC(=O)CNC(=O)[C@H](CCC(=O)O)NC(=O)[C@]1(C)CCCN1C(=O)[C@@H](N)Cc1ccc(O)cc1)[C@@H](C)O)[C@@H](C)O)[C@@H](C)CC)[C@@H](C)CC)C(=O)N[C@@H](CCC(=O)O)C(=O)NCC(=O)NCC(=O)N1CCC[C@H]1C(=O)N[C@@H](CO)C(=O)N[C@@H](CO)C(=O)NCC(=O)N[C@@H](C)C(=O)N1CCC[C@H]1C(=O)N1CCC[C@H]1C(=O)N1CCC[C@H]1C(=O)N[C@@H](CO)C(N)=O [Example 196] (H-Y[αMeP]EGTFTSDYSILLDRK([AEEA-AEEA-γGlu-C20 diacid])AQHAFIEYLIEGGPSSGAPPPS-NH2),0.175,0.277
CC[C@H](C)[C@H](NC(=O)[C@H](CC(C)C)NC(=O)[C@H](Cc1ccc(O)cc1)NC(=O)[C@@H](CCC(=O)O)NC(=O)[C@@H](NC(=O)[C@H](Cc1ccccc1)NC(=O)[C@H](CCC(=O)O)NC(=O)C(C)(C)NC(=O)[C@H](CCC(N)=O)NC(=O)[C@H](C)NC(=O)[C@H](CCCCNC(=O)COCCOCCNC(=O)COCCOCCNC(=O)CC[C@H](NC(=O)CCCCCCCCCCCCCCCCCCC(=O)O)C(=O)O)NC(=O)[C@H](CCC(=O)O)NC(=O)[C@H](CC(=O)O)NC(=O)[C@H](CC(C)C)NC(=O)[C@](C)(CC(C)C)NC(=O)[C@@H](NC(=O)[C@H](CO)NC(=O)[C@H](Cc1cccnc1)NC(=O)[C@H](CC(=O)O)NC(=O)[C@H](CO)NC(=O)[C@@H](NC(=O)[C@](C)(Cc1ccccc1F)NC(=O)[C@@H](NC(=O)CNC(=O)[C@H](CCC(=O)O)NC(=O)C(C)(C)NC(=O)[C@@H](N)Cc1c[nH]cn1)[C@@H](C)O)[C@@H](C)O)[C@@H](C)CC)[C@@H](C)CC)C(=O)N[C@@H](CCC(=O)O)C(=O)NCC(=O)NCC(=O)N1CCC[C@H]1C(=O)N[C@@H](CO)C(=O)N[C@@H](CO)C(=O)NCC(=O)N[C@@H](C)C(=O)N1CCC[C@H]1C(=O)N1CCC[C@H]1C(=O)N1CCC[C@H]1C(=O)N[C@@H](CO)C(N)=O [Example 190] (H-H[Aib]EGT[αMePhe(2-F)]TSD[3Pal]SI[αMeL]LDEK([AEEA-AEEA-γGlu-C20 diacid])AQ[Aib]EFI[dE]YLIEGGPSSGAPPPS-NH2),0.0241,0.738
CC[C@H](C)[C@H](NC(=O)[C@H](CC(C)C)NC(=O)[C@H](Cc1ccc(O)cc1)NC(=O)[C@@H](CCC(=O)O)NC(=O)[C@@H](NC(=O)[C@H](Cc1ccccc1)NC(=O)[C@@H](NC(=O)C(C)(C)NC(=O)[C@H](CCC(N)=O)NC(=O)[C@H](C)NC(=O)[C@H](CCCCNC(=O)COCCOCCNC(=O)COCCOCCNC(=O)CC[C@H](NC(=O)CCCCCCCCCCCCCCCCCCC(=O)O)C(=O)O)NC(=O)[C@H](CN)NC(=O)[C@H](CC(=O)O)NC(=O)[C@H](CC(C)C)NC(=O)[C@](C)(CC(C)C)NC(=O)[C@@H](NC(=O)[C@H](CO)NC(=O)[C@H](Cc1c[nH]cn1)NC(=O)[C@H](CC(=O)O)NC(=O)[C@H](CO)NC(=O)[C@@H](NC(=O)[C@](C)(Cc1ccccc1F)NC(=O)[C@@H](NC(=O)CNC(=O)[C@H](CCC(=O)O)NC(=O)C(C)(C)NC(=O)[C@@H](N)Cc1ccc(O)cc1)[C@@H](C)O)[C@@H](C)O)[C@@H](C)CC)[C@@H](C)O)[C@@H](C)CC)C(=O)N[C@@H](CCC(=O)O)C(=O)NCC(=O)NCC(=O)N1CCC[C@H]1C(=O)N[C@@H](CO)C(=O)N[C@@H](CO)C(=O)NCC(=O)N[C@@H](C)C(=O)N1CCC[C@H]1C(=O)N1CCC[C@H]1C(=O)N1CCC[C@H]1C(=O)N[C@@H](CO)C(N)=O [Example 173] (H-Y[Aib]EGT[αMePhe(2-F)]TSDHSI[αMeL]LD[Dap]K([AEEA-AEEA-γGlu-C20 diacid])AQ[Aib]TFI[dE]YLIEGGPSSGAPPPS-NH2),1.23,0.586
CC[C@H](C)[C@H](NC(=O)[C@H](CC(C)C)NC(=O)[C@H](Cc1ccc(O)cc1)NC(=O)[C@H](CCC(=O)O)NC(=O)[C@@H](NC(=O)[C@H](Cc1ccccc1)NC(=O)[C@H](C)NC(=O)C(C)(C)NC(=O)[C@H](CCC(N)=O)NC(=O)[C@H](C)NC(=O)[C@H](CCCCNC(=O)COCCOCCNC(=O)[C@@H](N)CCCCNC(=O)[C@@H](N)CCCCNC(=O)CCCCCCCCCCCCCCCCCCC(=O)O)NC(=O)[C@H](CCCCN)NC(=O)[C@H](CC(=O)O)NC(=O)[C@H](CC(C)C)NC(=O)[C@H](CC(C)C)NC(=O)[C@@H](NC(=O)[C@H](CO)NC(=O)[C@H](Cc1ccc(O)cc1)NC(=O)[C@H](CC(=O)O)NC(=O)[C@H](CO)NC(=O)[C@@H](NC(=O)[C@H](Cc1ccccc1)NC(=O)[C@@H](NC(=O)CNC(=O)[C@H](CCC(=O)O)NC(=O)C(C)(C)NC(=O)[C@@H](N)Cc1ccc(O)cc1)[C@@H](C)O)[C@@H](C)O)[C@@H](C)CC)[C@@H](C)CC)C(=O)N[C@@H](CCC(=O)O)C(=O)NCC(=O)NCC(=O)N1CCC[C@H]1C(=O)N[C@@H](CO)C(=O)N[C@@H](CO)C(=O)NCC(=O)N[C@@H](C)C(=O)N1CCC[C@H]1C(=O)N1CCC[C@H]1C(=O)N1CCC[C@H]1C(=O)N[C@@H](CO)C(N)=O [Example 114],0.267,0.133
CC[C@H](C)[C@H](NC(=O)[C@H](CCCCN)NC(=O)[C@H](CC(=O)O)NC(=O)[C@H](CC(C)C)NC(=O)[C@H](CC(C)C)NC(=O)[C@@H](NC(=O)[C@H](CO)NC(=O)[C@H](Cc1ccc(O)cc1)NC(=O)[C@H](CC(=O)O)NC(=O)[C@H](CO)NC(=O)[C@@H](NC(=O)[C@](C)(Cc1ccccc1)NC(=O)[C@@H](NC(=O)CNC(=O)[C@H](CCC(=O)O)NC(=O)C(C)(C)NC(=O)[C@@H](N)Cc1ccc(O)cc1)[C@@H](C)O)[C@@H](C)O)[C@@H](C)CC)C(=O)N[C@@H](C)C(=O)N[C@@H](CCC(N)=O)C(=O)NC(C)(C)C(=O)N[C@@H](C)C(=O)N[C@@H](Cc1ccccc1)C(=O)N[C@H](C(=O)N[C@@H](CCC(=O)O)C(=O)N[C@@H](Cc1ccc(O)cc1)C(=O)N[C@@H](CC(C)C)C(=O)N[C@H](C(=O)N[C@@H](CCCCNC(=O)COCCOCCNC(=O)COCCOCCNC(=O)CC[C@H](NC(=O)CCCCCCCCCCCCCCCCCCC(=O)O)C(=O)O)C(=O)NCC(=O)NCC(N)=O)[C@@H](C)CC)[C@@H](C)CC [Example 95] (H-Y[Aib]EGT[αMeF]TSDYSILLDKIAQ[Aib]AFIEYLIK([AEEA-AEEA-γGlu-C20 diacid])GG-NH2),1.01,1.17
